Test results published in PubChem BioAssay AID2060359 (Molecular Pharmacology Branch, DTP, NCI, 2025).
“And” between values parts separate entries of the source, which are not always exact repeats. Identical values can stand only once.

Tested on: 276233-004-R-J1-PDC spheroids with HUVEC/MSC, viability
Assay: Anticancer human tumor 276233-004-R-J1-PDC patient-derived colon adenocarcinoma cell line growth inhibition [TAK]
Conditions: for viability, T/C: stronger effect = lower value
Source text: Combinatorial screen of targeted agents with TAK-243 and ipatasertib in multi-cell type tumor spheroids
A high-throughput screen of multi-cell type tumor spheroids was designed to identify active combinations of targeted small molecules and TAK-243 or ipatasertib. Complex spheroids include a stromal component modeled by human endothelial cells (HUVEC) and fibroblasts modeled by human mesenchymal stem cells (MSCs). The concentration ranges selected for each drug and investigational agent were based upon clinically achievable concentrations if the clinical Cmax of the agent was known.
Compounds. The drugs and investigational agents: TAK-243 (785004), ipatasertib (767898), everolimus (733504), selumetinib (741078), bortezomib (756655), trametinib (758246), ixazomib (758254), vemurafenib (761431), dabrafenib (764134), sapanisertib (764658), alpelisib (765974), and copanlisib (816437), were obtained from the National Cancer Institute (NCI) Developmental Therapeutics Program Chemical Repository. The FDA-approved anticancer drug set is available from the NCI Developmental Therapeutics Program. […] The stock solutions were prepared in dimethyl sulfoxide (DMSO, Sigma-Aldrich, St. Louis, MO, cat. D2650) at 800-fold the tested concentration and stored at -70 degrees C prior to their use. All drugs and investigational agents were tested over a range starting from a high concentration at or near the clinical Cmax and decreasing in half-log increments. If the clinical Cmax for an agent had not been determined, the highest concentration tested was 10 microM.
NCI60 Cell Culture. NCI60 cell lines were obtained from the NCI Developmental Therapeutics Program Tumor Repository. For each lot of cells, the Repository performed Applied Biosystems AmpFLSTR Identifiler testing with PCR amplification to confirm consistency with the published Identifier STR profile for each cell line. Cells were kept in continuous culture for no more than 20 passages. The optimal seeding densities for each of the cell lines at each time point assessed were determined prior to performing the concentration response studies. Briefly, the NCI60 human tumor lines were grown as monolayers in RPMI 1640 medium supplemented with 10% FBS and 2 mmol/L L-glutamine.
An additional 2 lines were from the NCI60 cell line panel including melanomas, MALME-3M and SK-MEL-2. Pooled donor human umbilical vein endothelial cells (HUVEC, Lonza, cat. CC-2519) and human mesenchymal stem cells (hMSC, Lonza, cat. PT-2501) were purchased from Lonza (Walkersville, MD).
PDMR cell lines were grown in complete medium (DC medium): Dulbecco's modified Eagle's medium (DMEM)/F12 supplemented with 5% fetal bovine serum (FBS), 2 mM L-glutamine, 100 U/mL penicillin and 100 µg/ml streptomycin, 0.4 µg/ml hydrocortisone, 10 ng/ml epidermal growth factor (EGF) recombinant human protein, 24 µg/mL adenine, and 0.1 mg/mL primocin. During culture from frozen stock vials, PDMR cells were cultured in the same medium containing 10 µM Y-27632 (see Table 3). The PDCs were cultured in complete DMEM/F12 media without 10 microM Y-27632 dihydrochloride for at least two passages prior to the screen. The pooled donor HUVEC and hMSC were cultured in endothelial cell growth medium 2 (PromoCell, Heidelberg, Germany, cat. C-22011) and mesenchymal stem cell growth medium 2 (PromoCell, cat. C-28009), respectively. For all experiments, HUVEC and hMSC were used at passages </=5.
For the pre-screen, cell seeding densities were determined from a titration spanning the range from 5,000 to 313 cells per well. The mct-spheroids including 60% malignant cells, 25% HUVEC and 15% MSC dispensed as a mixture into U-bottom Ultra-Low Attachment 384-well plates (Corning, NY)
High-throughput Drug Combination Screening.
Prior to their inoculation into 384-well plates, malignant cells, HUVEC, and hMSC were removed from T flasks using TrypLE express (Thermo Fisher Scientific, cat. 12605036) and harvested by centrifugation for 5 min at 233 x g. […]
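Also: spheroids exposed to drugs for seven days before the viability read.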

How did the viability, T/C (compound 0.0316 µM) turn out when CC(C)(C)c1nc(-c2cccc(NS(=O)(=O)c3c(F)cccc3F)c2F)c(-c2ccnc(N)n2)s1 was run?
The viability, T/C was 93.4% and 107%.

And the viability, T/C (compound 0.1 µM)?
Its viability, T/C is 86.3% and 116%.

What about the viability, T/C (compound 0.316 µM) of the same molecule?
The viability, T/C was 113% and 106%.

And the viability, T/C (compound 1 µM)?
Its viability, T/C is 86.4% and 100%.

What about the viability, T/C (compound 3.16 µM) of the same molecule?
The viability, T/C was 77.2% and 58.5%.

What about the viability, T/C (compound 10 µM) of the same molecule?
The viability, T/C was 84.5% and 86.9%.

What about the IC50 (curve of compound) of the same molecule?
The IC50 was > 10000 nM.

How did the IC50 (curve of first compound, second compound 0.3 µM) turn out when Cn1cnc2c(F)c(Nc3ccc(Br)cc3Cl)c(C(=O)NOCCO)cc21 + CC(C)NCC(C(=O)N1CCN(c2ncnc3c2C(C)CC3O)CC1)c1ccc(Cl)cc1 was run?
The IC50 was 462 nM.

What about the IC50 (curve of first compound, second compound 0.949 µM) of the same molecule?
The IC50 was 361 nM.

And the IC50 (curve of first compound, second compound 3 µM)?
The IC50 was 145 nM.

What about the IC50 (curve of first compound, second compound 9.49 µM) of the same molecule?
Its IC50 is 63.8 nM.

What about the IC50 (curve of first compound, second compound 30 µM) of the same molecule?
The IC50 was 9.49 nM.

And the viability, T/C (second compound 0.3 µM, first compound 0.00949 µM)?
The viability, T/C was 79.5%.

What about the viability, T/C (second compound 0.3 µM, first compound 0.03 µM) of the same molecule?
Its viability, T/C is 82.8%.

What about the viability, T/C (second compound 0.3 µM, first compound 0.0949 µM) of the same molecule?
Its viability, T/C is 65.4%.

What about the viability, T/C (second compound 0.3 µM, first compound 0.3 µM) of the same molecule?
Its viability, T/C is 52%.

And the viability, T/C (second compound 0.3 µM, first compound 0.949 µM)?
The viability, T/C was 49.8%.

What about the viability, T/C (second compound 0.3 µM, first compound 3 µM) of the same molecule?
The viability, T/C was 38.5%.

What about the viability, T/C (second compound 0.949 µM, first compound 0.00949 µM) of the same molecule?
Its viability, T/C is 73.6%.

And the viability, T/C (second compound 0.949 µM, first compound 0.03 µM)?
Its viability, T/C is 68.5%.

And the viability, T/C (second compound 0.949 µM, first compound 0.0949 µM)?
The viability, T/C was 57.9%.

What about the viability, T/C (second compound 0.949 µM, first compound 0.3 µM) of the same molecule?
Its viability, T/C is 52.2%.

And the viability, T/C (second compound 0.949 µM, first compound 0.949 µM)?
The viability, T/C was 43.1%.

And the viability, T/C (second compound 0.949 µM, first compound 3 µM)?
The viability, T/C was 33.3%.

What about the viability, T/C (second compound 3 µM, first compound 0.00949 µM) of the same molecule?
The viability, T/C was 67.2%.

What about the viability, T/C (second compound 3 µM, first compound 0.03 µM) of the same molecule?
The viability, T/C was 61.1%.

And the viability, T/C (second compound 3 µM, first compound 0.0949 µM)?
The viability, T/C was 54.4%.

What about the viability, T/C (second compound 3 µM, first compound 0.3 µM) of the same molecule?
Its viability, T/C is 42%.

And the viability, T/C (second compound 3 µM, first compound 0.949 µM)?
Its viability, T/C is 39.7%.

And the viability, T/C (second compound 3 µM, first compound 3 µM)?
The viability, T/C was 31.4%.

What about the viability, T/C (second compound 9.49 µM, first compound 0.00949 µM) of the same molecule?
Its viability, T/C is 64%.

And the viability, T/C (second compound 9.49 µM, first compound 0.03 µM)?
The viability, T/C was 57.1%.

And the viability, T/C (second compound 9.49 µM, first compound 0.0949 µM)?
Its viability, T/C is 45.6%.

What about the viability, T/C (second compound 9.49 µM, first compound 0.3 µM) of the same molecule?
Its viability, T/C is 40.4%.

And the viability, T/C (second compound 9.49 µM, first compound 0.949 µM)?
Its viability, T/C is 32.7%.

What about the viability, T/C (second compound 9.49 µM, first compound 3 µM) of the same molecule?
The viability, T/C was 28.9%.

What about the viability, T/C (second compound 30 µM, first compound 0.00949 µM) of the same molecule?
Its viability, T/C is 50.1%.

And the viability, T/C (second compound 30 µM, first compound 0.03 µM)?
The viability, T/C was 45.2%.

What about the viability, T/C (second compound 30 µM, first compound 0.0949 µM) of the same molecule?
The viability, T/C was 42.5%.

What about the viability, T/C (second compound 30 µM, first compound 0.3 µM) of the same molecule?
The viability, T/C was 52%.

And the viability, T/C (second compound 30 µM, first compound 0.949 µM)?
Its viability, T/C is 28.9%.

And the viability, T/C (second compound 30 µM, first compound 3 µM)?
Its viability, T/C is 33.1%.

For CC(C)NCC(C(=O)N1CCN(c2ncnc3c2C(C)CC3O)CC1)c1ccc(Cl)cc1 (stereo not given), which viability, T/C (compound 0.949 µM) is on record?
Its viability, T/C is 84.7% [middle of 10 runs].

And the viability, T/C (compound 3 µM)?
The viability, T/C was 82.2% [middle of 10 runs].

And the IC50 (compound alone, run of 03/19/2020)?
Its IC50 is > 30000 nM.
